Experimental data: PMC4318582, “Chemotherapy of Second Stage Human African Trypanosomiasis: Comparison between the Parenteral Diamidine DB829 and Its Oral Prodrug DB868 in Vervet Monkeys” (PLoS Neglected Tropical Diseases, 2015)
Several values for one entry are separate records, joined by “and”; a condition that tells them apart may be missing. Equal values may be shown once. Read-outs that look alike come from different tables or passages of the source.

Tests used:
[1] = Tolerability of dose regimens in infected vervet monkeys; assay type: in vivo, vervet monkey; conditions: all IM DB829 and oral DB868 dose regimens
Excerpt: Parasitaemia post-infection was monitored daily, using ear-prick capillary blood, through the completion of DB868 and DB829 treatment. Following the last drug dose (LDD), blood and CSF samples were examined for trypanosomes at 1, 4, 7, and 14 days to determine the end of treatment (EoT) response; monkeys which were positive for trypanosomes in either blood or CSF at the end of this 14-day period were classified as treatment failures/not cured while those that were free of trypanosomes were classified as provisionally cured. After the 14-day EoT evaluations, parasitaemia examinations were continued twice weekly to ≥ 300 days post-LDD as described previously. Additionally, physical examinations and haematological assessments were carried out once weekly up to 28 days post-LDD, once every two weeks between 28 and 100 days post-LDD, and monthly thereafter until the end of the study as described previously. At 300 days post-LDD, monkeys were considered cured if they remained normal clinically and parasite-free in the blood and CSF. Pharmacokinetic outcomes were monitored for a minimum of 60 days post-LDD as described previously. To facilitate the collection of blood and CSF for these assessments, the monkeys were anaesthetised with an IM injection of ketamine HCl (10–15 mg/kg) and diazepam (0.5 mg/kg). […]

[2] = Plasma pharmacokinetics in infected vervet monkeys (HPLC-MS/MS); assay type: in vivo, vervet monkey; conditions: for AUClast: last measurable concentration varied (112–490 days); for CL/F / half-life / Cmax / Tmax: monkey, in vivo; for CL/F: read-out: Cl/F (apparent clearance) (converted); for Tmax: read-out: Tmax (converted)
Excerpt: Parasitaemia post-infection was monitored daily, using ear-prick capillary blood, through the completion of DB868 and DB829 treatment. Following the last drug dose (LDD), blood and CSF samples were examined for trypanosomes at 1, 4, 7, and 14 days to determine the end of treatment (EoT) response; monkeys which were positive for trypanosomes in either blood or CSF at the end of this 14-day period were classified as treatment failures/not cured while those that were free of trypanosomes were classified as provisionally cured. After the 14-day EoT evaluations, parasitaemia examinations were continued twice weekly to ≥ 300 days post-LDD as described previously. Additionally, physical examinations and haematological assessments were carried out once weekly up to 28 days post-LDD, once every two weeks between 28 and 100 days post-LDD, and monthly thereafter until the end of the study as described previously. At 300 days post-LDD, monkeys were considered cured if they remained normal clinically and parasite-free in the blood and CSF. Pharmacokinetic outcomes were monitored for a minimum of 60 days post-LDD as described previously. To facilitate the collection of blood and CSF for these assessments, the monkeys were anaesthetised with an IM injection of ketamine HCl (10–15 mg/kg) and diazepam (0.5 mg/kg). Monkeys that relapsed, characterized by trypanosome recrudescence in the blood or CSF, were rescue-treated with melarsoprol. Melarsoprol (Mel B), supplied by the World Health Organization as a 3.6% (w/v) solution in propylene glycol, was administered intravenously at 3.6 mg/kg/day for 4 consecutive days.
Plasma samples were processed for quantification of DB868 and DB829 by high performance liquid chromatography-tandem mass spectrometry (HPLC-MS/MS) as described previously. CSF samples were processed in a manner similar to that of plasma samples.
Clinical and haematological data were analysed using Statview for Windows Version 5.0.1 (1995–1998; SAS Institute Inc., Cary, NC, USA). Repeated measures ANOVA, with Fisher’s PLSD post hoc test, was used to test the effect of trypanosome infection on haematologic parameters in comparison with respective baseline values (α = 0.05). In addition, the effects of IM DB829 and oral DB868 on these haematologic parameters in monkeys with confirmed second stage HAT were tested. Pharmacokinetic outcomes were recovered using traditional non-compartmental methods using Phoenix WinNonlin (version 6.2; Pharsight, Mountain View, CA, USA).

[3] = IM DB829 consecutive-day dosing
[4] = after 5th IM dose, Group 1 = 5 mg/kg × 5 consecutive days, 5 mg/kg
[5] = after 5th IM dose, Group 3 = 2.5 mg/kg × 5 consecutive days, 2.5 mg/kg

## N=C(N)c1ccc(-c2ccc(-c3ccc(C(=N)N)cn3)o2)nc1 [DB829, 2,5-bis(5-amidino-2-pyridyl)furan]
[1]
  tolerability of dose regimens: well tolerated
[2]; IM DB829 2.5 mg/kg/day
  geometric mean plasma Cmax of DB829 relative to that after oral DB868 at 20 mg/kg/day: 10 times
[2]; IM DB829 5 mg/kg/day
  AUC, alternate-day relative to consecutive-day dosing regimen: 5 fold
[2]; IM DB829 5 mg/kg/day, after last of 5 doses
  geometric mean plasma Cmax of DB829 relative to that after oral DB868 at 20 mg/kg/day: 25 fold
[2]; IM DB829 5 mg/kg/day, 5 mg/kg/day
  terminal half-life, alternate-day relative to consecutive-day dosing regimen: 4 fold and 5 fold
[2]; IM DB829 2.5 and 5 mg/kg/day consecutive-day dose groups
  median plasma Tmax: 0.04 days
[2]; [3]
  geometric mean AUC, 5 mg/kg/day group relative to 2.5 mg/kg/day group: 2.1 fold
  geometric mean Cmax, 5 mg/kg/day group relative to 2.5 mg/kg/day group: 2.7 fold
[2]; [4]
  AUC0-∞: 13000 nmol·days/L and 15000 nmol·days/L
  Cl/F (apparent clearance): 0.0317 L/h/kg
  t½ (terminal half-life): 44 days
  AUClast: 12000 nmol·days/L and 13000 nmol·days/L
[2]; after 5th IM dose, Group 2 = 5 mg/kg × 5 alternating days, 5 mg/kg
  t½ (terminal half-life): 180 days
[2]; [5]
  AUC0-∞: 8300 nmol·days/L and 5300 nmol·days/L
  Cl/F (apparent clearance): 0.0417 L/h/kg
  t½ (terminal half-life): 42 days
  AUClast: 7700 nmol·days/L and 4500 nmol·days/L
[2]; after oral DB868 10 mg/kg/day
  geometric mean AUC0–63 of DB829 relative to single monkey of 3 mg/kg/day group: approximately 3 fold
[2]; after oral DB868 20 mg/kg/day
  geometric mean AUC0–63 of DB829 relative to single monkey of 3 mg/kg/day group: ~4 fold
[2]; im, 2.5 mg/kg, after 5th IM dose, Group 3 = 2.5 mg/kg × 5 consecutive days
  CL/F: 0.0279 L/h/kg
[2]; im, 2.5 mg/kg, after 5th IM dose, Group 3 = 2.5 mg/kg × 5 consecutive days, read-out: t½ (terminal half-life) (converted)
  half-life: 33 days
[2]; im, 2.5 mg/kg, plasma DB829 after 5th IM dose, Group 3 = 2.5 mg/kg × 5 consecutive days, read-out: Cmax
  Cmax: 4.2 µM
[2]; im, 2.5 mg/kg, plasma DB829 after 5th IM dose, Group 3 = 2.5 mg/kg × 5 consecutive days
  Tmax: 0.04 days
[2]; im, 5 mg/kg, after 5th IM dose, Group 1 = 5 mg/kg × 5 consecutive days
  CL/F: 0.0354 L/h/kg
[2]; im, 5 mg/kg, after 5th IM dose, Group 1 = 5 mg/kg × 5 consecutive days, read-out: t½ (terminal half-life) (converted)
  half-life: 34 days
[2]; im, 5 mg/kg, after 5th IM dose, Group 2 = 5 mg/kg × 5 alternating days, read-out: t½ (terminal half-life) (converted)
  half-life: 130 days
[2]; im, 5 mg/kg, plasma DB829 after 5th IM dose, Group 1 = 5 mg/kg × 5 consecutive days, read-out: Cmax
  Cmax: 12 µM
[2]; im, 5 mg/kg, plasma DB829 after 5th IM dose, Group 1 = 5 mg/kg × 5 consecutive days
  Tmax: 0.04 days
[2]; im, 5 mg/kg, plasma DB829 after 5th IM dose, Group 2 = 5 mg/kg × 5 alternating days, read-out: Cmax
  Cmax: 16 µM
[2]; im, 5 mg/kg, plasma DB829 after 5th IM dose, Group 2 = 5 mg/kg × 5 alternating days
  Tmax: 0.04 days
[2]; im, IM DB829 consecutive-day dosing regimens, read-out: geometric mean (range) terminal half-life (t½) (converted)
  half-life: 38 days
[2]; po, 3 mg/kg/day, after oral DB868 3 mg/kg/day, read-out: Geometric mean Cmax (range) of DB829
  Cmax: 0.085 µM
[2]; po, 3 mg/kg/day, plasma DB829 after the 10th oral dose of DB868, 3 mg/kg × 10 days, read-out: Cmax
  Cmax: 0.06 µM
[2]; po, 10 mg/kg/day, after oral DB868 10 mg/kg/day, read-out: Geometric mean Cmax (range) of DB829
  Cmax: 0.27 µM
